# Biological target: T1, PARP7 (Homo sapiens, UniProt Q7Z3E1)
# T1 sequence (Q7Z3E1 1-657): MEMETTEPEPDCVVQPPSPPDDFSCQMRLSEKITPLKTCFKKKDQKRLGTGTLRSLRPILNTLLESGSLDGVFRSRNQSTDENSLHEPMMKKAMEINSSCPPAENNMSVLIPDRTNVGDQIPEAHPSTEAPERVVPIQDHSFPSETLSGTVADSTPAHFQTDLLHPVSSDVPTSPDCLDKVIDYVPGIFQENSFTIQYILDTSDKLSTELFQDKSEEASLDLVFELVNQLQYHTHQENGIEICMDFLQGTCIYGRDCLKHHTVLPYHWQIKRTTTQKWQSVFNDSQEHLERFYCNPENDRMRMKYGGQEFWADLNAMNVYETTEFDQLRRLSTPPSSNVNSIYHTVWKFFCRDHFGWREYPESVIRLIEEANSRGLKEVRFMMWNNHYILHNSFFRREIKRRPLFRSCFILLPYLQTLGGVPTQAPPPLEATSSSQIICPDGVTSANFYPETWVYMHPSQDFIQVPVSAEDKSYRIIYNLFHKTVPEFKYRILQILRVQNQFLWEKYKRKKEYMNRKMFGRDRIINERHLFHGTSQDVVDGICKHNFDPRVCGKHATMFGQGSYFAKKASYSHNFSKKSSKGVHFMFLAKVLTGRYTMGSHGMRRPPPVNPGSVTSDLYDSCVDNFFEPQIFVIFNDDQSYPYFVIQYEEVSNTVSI
# Assay: PARP7 TR-FRET assay (binding, displacement of biotinylated Probe A)
# Settings: 6 nM PARP7, 2 nM Probe A, 25° C., 30 min
# Summary of the method: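 His-tagged PARP7 at 6 nM was preincubated with compound and 2 nM biotinylated Probe A for 30 min at 25° C (HEPES pH 8.0, NaCl, BSA, DTT, Tween20). Europium-streptavidin/ULight-anti-His FRET was read as the 665/615 nm ratio after a further 30 min. IC50 was fitted from % inhibition normalised to vehicle and blank.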
row,Compound,IC50 [µM]
1,"CNCc1ccc2c(c1)N(c1cc(C(F)(F)F)c(=O)[nH]n1)CC(CC(=O)N1CCN(c3ncc(C(F)(F)F)cn3)CC1)O2 (single isomer, unassigned) [Compound 297]",0.1 to 1
2,"CNCc1ccc2c(c1)N(c1cc(C(F)(F)F)c(=O)[nH]n1)CC(CC(=O)N1CCN(c3ncc(C(F)(F)F)cn3)CC1)O2 (single isomer, unassigned) [Compound 298]",0.1 to 1
3,"O=C(CC1CN(c2cc(C(F)(F)F)c(=O)[nH]n2)c2cc(F)ccc2O1)N1CCN(c2ccc(C3CC3)cn2)CC1 (single isomer, unassigned) [Compound 301]",> 1
4,"COCCNC(=O)c1ccc2c(c1)N(c1cc(C(F)(F)F)c(=O)[nH]n1)CC(CC(=O)N1CCN(c3ncc(C(F)(F)F)cn3)CC1)O2 (single isomer, unassigned) [Compound 310]",< 0.1
5,"O=C(CC1CN(c2cc(C(F)(F)F)c(=O)[nH]n2)c2cc(F)ccc2O1)N1CCN(c2ncc(OC(F)(F)F)cn2)CC1 (single isomer, unassigned) [Compound 311]",< 0.1
6,"O=C(CC1CN(c2cc(C(F)(F)F)c(=O)[nH]n2)c2cc(F)ccc2O1)N1CCN(c2ncc(OC(F)(F)F)cn2)CC1 (single isomer, unassigned) [Compound 312]",0.1 to 1
7,"CNC(=O)c1ccc2c(c1)N(c1cc(C(F)(F)F)c(=O)[nH]n1)CC(CC(=O)N1CCN(c3ncc(C(F)(F)F)cn3)CC1)O2 (single isomer, unassigned) [Compound 323]",< 0.1
8,"C[C@@H]1CN(C(=O)CC2CN(c3cc(C(F)(F)F)c(=O)[nH]n3)c3cc(F)ccc3O2)CCN1c1ncc(C#N)cn1 (single isomer, unassigned) [Compound 325]",< 0.1
9,"C[C@@H]1CN(C(=O)CC2CN(c3cc(C(F)(F)F)c(=O)[nH]n3)c3cc(F)ccc3O2)CCN1c1ncc(C#N)cn1 (single isomer, unassigned) [Compound 326]",0.1 to 1
10,"N#Cc1ccc(N2CCN(C(=O)CC3CN(c4cc(C(F)(F)F)c(=O)[nH]n4)c4cc(C(F)F)ccc4O3)CC2)nc1 (single isomer, unassigned) [Compound 327]",< 0.1
11,"N#Cc1ccc(N2CCN(C(=O)CC3CN(c4cc(C(F)(F)F)c(=O)[nH]n4)c4cc(C(F)F)ccc4O3)CC2)nc1 (single isomer, unassigned) [Compound 328]",< 0.1
12,"C[C@@H]1CN(C(=O)CC2CN(c3cc(C(F)(F)F)c(=O)[nH]n3)c3cc(Cl)ccc3O2)CCN1c1ncc(C#N)cn1 (single isomer, unassigned) [Compound 329]",< 0.1
13,"C[C@@H]1CN(C(=O)CC2CN(c3cc(C(F)(F)F)c(=O)[nH]n3)c3cc(Cl)ccc3O2)CCN1c1ncc(C#N)cn1 (single isomer, unassigned) [Compound 330]",0.1 to 1
14,"N#CC1(c2ccc3c(c2)N(c2cc(C(F)(F)F)c(=O)[nH]n2)CC(CC(=O)N2CCN(c4ncc(C(F)(F)F)cn4)CC2)O3)CC1 (single isomer, unassigned) [Compound 338]",< 0.1
15,"N#CC1(c2ccnc(N3CCN(C(=O)CC4CN(c5cc(C(F)(F)F)c(=O)[nH]n5)c5cc(F)ccc5O4)CC3)n2)CC1 (single isomer, unassigned) [Compound 343]",< 0.1
16,"N#CC1(c2ccnc(N3CCN(C(=O)CC4CN(c5cc(C(F)(F)F)c(=O)[nH]n5)c5cc(F)ccc5O4)CC3)n2)CC1 (single isomer, unassigned) [Compound 344]",> 1
17,"N#CC1(c2ccnc(N3CCN(C(=O)CC4CN(c5cc(C(F)(F)F)c(=O)[nH]n5)c5cc(Cl)ccc5O4)CC3)n2)CC1 (single isomer, unassigned) [Compound 345]",> 1
18,"CC(C)(O)c1cnc(N2CCN(C(=O)CC3CN(c4cc(C(F)(F)F)c(=O)[nH]n4)c4cc(F)ccc4O3)CC2)nc1 (single isomer, unassigned) [Compound 348]",< 0.1
19,"CC(C)(O)c1cnc(N2CCN(C(=O)CC3CN(c4cc(C(F)(F)F)c(=O)[nH]n4)c4cc(F)ccc4O3)CC2)nc1 (single isomer, unassigned) [Compound 351]",< 0.1

row,Compound,IC50 [µM]
1,Cc1c(N2C[C@H](CC(=O)N3CCN(c4ncc(C(F)(F)F)cn4)CC3)O[C@H](C)C2)n[nH]c(=O)c1C(F)(F)F (stereo in doubt) [Compound 41],< 0.1
2,C[C@H]1CN(c2cc(C(F)(F)F)c(=O)[nH]n2)C[C@@H](CC(=O)N2CCN(c3ncc(C(F)(F)F)cn3)CC2)O1 (stereo in doubt) [Compound 79],< 0.1
3,C[C@H]1CN(c2n[nH]c(=O)c3cccc(F)c23)C[C@H](CC(=O)N2CCN(c3ncc(C(F)(F)F)cn3)CC2)O1 (stereo in doubt) [Compound 88],0.1 to 1
4,C[C@@H]1CN(c2n[nH]c(=O)c3cccc(F)c23)C[C@@H](CC(=O)N2CCN(c3ncc(C(F)(F)F)cn3)CC2)O1 (stereo in doubt) [Compound 90],0.1 to 1
5,C[C@H]1CN(c2n[nH]c(=O)c3c(F)cccc23)C[C@H](CC(=O)N2CCN(c3ncc(C(F)(F)F)cn3)CC2)O1 (stereo in doubt) [Compound 91],0.1 to 1
6,C[C@H]1CN(c2n[nH]c(=O)c3c(F)cccc23)C[C@@H](CC(=O)N2CCN(c3ncc(C(F)(F)F)cn3)CC2)O1 (stereo in doubt) [Compound 95],< 0.1
7,C[C@@H]1CN(c2n[nH]c(=O)c3c(F)cccc23)C[C@@H](CC(=O)N2CCN(c3ncc(C(F)(F)F)cn3)CC2)O1 (stereo in doubt) [Compound 96],0.1 to 1
8,C[C@@H]1CN(c2cc(C(F)(F)F)c(=O)[nH]n2)C[C@H](CC(=O)N2CCN(c3ncc(C(F)(F)F)cn3)CC2)O1 (stereo in doubt) [Compound 110],0.1 to 1
9,C[C@H]1CN(c2cc(C(F)(F)F)c(=O)[nH]n2)C[C@H](CC(=O)N2CCN(c3ncc(C(F)(F)F)cn3)CC2)O1 (stereo in doubt) [Compound 111],< 0.1
10,C[C@@H]1CN(c2cc(C(F)(F)F)c(=O)[nH]n2)C[C@@H](CC(=O)N2CCN(c3ncc(C(F)(F)F)cn3)CC2)O1 (stereo in doubt) [Compound 112],< 0.1
11,C[C@@H]1CN(c2n[nH]c(=O)c3c(F)cccc23)C[C@H](CC(=O)N2CCN(c3ncc(C(F)(F)F)cn3)CC2)O1 (stereo in doubt) [Compound 118],0.1 to 1
12,C[C@@H]1CN(c2n[nH]c(=O)c3cccc(F)c23)C[C@H](CC(=O)N2CCN(c3ncc(C(F)(F)F)cn3)CC2)O1 (stereo in doubt) [Compound 119],> 1
13,C[C@H]1CN(c2n[nH]c(=O)c3cccc(F)c23)C[C@@H](CC(=O)N2CCN(c3ncc(C(F)(F)F)cn3)CC2)O1 (stereo in doubt) [Compound 120],0.1 to 1
14,O=C(CO[C@@H]1C[C@@H](CC2CC2)Oc2c1n[nH]c(=O)c2C(F)(F)F)N1CCN(c2ncc(C(F)(F)F)cn2)CC1 (stereo in doubt) [Compound 144],< 0.1
15,O=C(CO[C@H]1C[C@H](CC2CC2)Oc2c1n[nH]c(=O)c2C(F)(F)F)N1CCN(c2ncc(C(F)(F)F)cn2)CC1 (stereo in doubt) [Compound 184],> 1
16,C#Cc1c2c(n[nH]c1=O)[C@H](OCC(=O)N1CCN(c3ncc(C(F)(F)F)cn3)CC1)CCO2 [Compound 12],< 0.1
17,Cc1c(C(F)(F)F)c(Oc2cccc(C(=O)N3CCN(c4ncc(C(F)(F)F)cn4)CC3)c2)n[nH]c1=O [Compound 17],> 1
18,O=C(c1cccc(Oc2n[nH]c(=O)cc2C(F)(F)F)c1)N1CCN(c2ncc(C(F)(F)F)cn2)CC1 [Compound 18],> 1

# Source: patent publication US20240343727A1, “PYRIDAZINONE OR PYRIDINONE COMPOUNDS, PREPARATION METHODS AND USES THEREOF” (InventisBio Co., Ltd., priority 2021, published 2024)
